Experimental data: patent US9682995B2, “Amino-substituted isothiazoles” (BAYER PHARMA AKTIENGESELLSCHAFT, priority 2013, dated 2017)

Tests used:
Assay type in all cases: cell-based
[1] = tested on: Caco2; assay: Proliferation assay (crystal violet), Caco2; conditions: Homo sapiens, Caco-2, 96 h; Caco2, 4 days; read-out: Inhibition of proliferation IC50 Caco2
Description: (§1) Cultivated tumor cells (cells were ordered from ATCC, except HeLa-MaTu and HeLa-MaTu-ADR, which were ordered from EPO-GmbH, Berlin) were plated at a density of 1000 to 5000 cells/well, depending on the growth rate of the respective cell line, in a 96-well multititer plate in 200 μL of their respective growth medium supplemented 10% fetal calf serum. After 24 hours, the cells of one plate (zero-point plate) were stained with crystal violet (see below), while the medium of the other plates was replaced by fresh culture medium (200 μl), to which the test substances were added in various concentrations (0 μM, as well as in the range of 0.001-10 μM; the final concentration of the solvent dimethyl sulfoxide was 0.5%). The cells were incubated for 4 days in the presence of test substances. Cell proliferation was determined by staining the cells with crystal violet: the cells were fixed by adding 20 μl/measuring point of an 11% glutaric aldehyde solution for 15 minutes at room temperature. After three washing cycles of the fixed cells with water, the plates were dried at room temperature. The cells were stained by adding 100 μl/measuring point of a 0.1% crystal violet solution (pH 3.0). After three washing cycles of the stained cells with water, the plates were dried at room temperature. The dye was dissolved by adding 100 μl/measuring point of a 10% acetic acid solution. Absorption was determined by photometry at a wavelength of 595 nm. The change of cell number, in percent, was calculated by normalization of the measured values to the absorption values of the zero-point plate (=0%) and the absorption of the untreated (0 μm) cells (=100%). The IC50 values were determined by means of a 4 parameter fit.

[2] = tested on: HeLa-MaTu-ADR; assay: Proliferation assay (crystal violet), HeLa-MaTu-ADR; conditions: 96 h, 4 days, read-out: Inhibition of proliferation IC50 HeLa-MaTu-ADR
Description: as §1

[3] = tested on: NCI-H460; assay: Proliferation assay (crystal violet), NCI-H460; conditions: Homo sapiens, 96 h; NCI-H460, 4 days; read-out: Inhibition of proliferation IC50 NCI-H460
Description: as §1

[4] = tested on: DU145; assay: Proliferation assay (crystal violet), DU145; conditions: Homo sapiens, DU-145, 96 h; DU145, 4 days; read-out: Inhibition of proliferation IC50 DU145
Description: as §1

[5] = tested on: B16F10; assay: Proliferation assay (crystal violet), B16F10; conditions: Mus musculus, B16-F10, 96 h; B16F10, 4 days; read-out: Inhibition of proliferation IC50 B16F10
Description: as §1

Cc1nsc(Nc2cc(C#N)ccn2)c1C(=O)Nc1ccc(Cl)c(F)c1 [Example 54, N-(4-Chloro-3-fluorophenyl)-5-[(4-cyanopyridin-2-yl)amino]-3-methyl-1,2-thiazole-4-carboxamide]
IC50 [1]: 1300 nM | IC50 [2]: 650 nM | IC50 [3]: 210 nM | IC50 [4]: 1200 nM | IC50 [5]: 860 nM

Cc1nsc(Nc2cnc3ccccc3n2)c1C(=O)Nc1ccc(Cl)c(F)c1 [Example 40, N-(4-Chloro-3-fluorophenyl)-3-methyl-5-(quinoxalin-2-ylamino)-1,2-thiazole-4-carboxamide]
IC50 [1]: 470 nM | IC50 [2]: 330 nM | IC50 [3]: 290 nM | IC50 [4]: 590 nM | IC50 [5]: 440 nM

Cc1nsc(Nc2cnc3cc(F)ccc3n2)c1C(=O)Nc1ccc(F)c(F)c1 [Example 46, N-(3,4-Difluorophenyl)-5-[(6-fluoroquinoxalin-2-yl)amino]-3-methyl-1,2-thiazole-4-carboxamide]
IC50 [1]: 110 nM | IC50 [2]: 110 nM | IC50 [3]: 86 nM | IC50 [4]: 180 nM | IC50 [5]: 120 nM

Cc1nsc(Nc2ccc(C#N)cn2)c1C(=O)Nc1ccc(F)c(F)c1 [Example 28, 5-[(5-Cyanopyridin-2-yl)amino]-N-(3,4-difluorophenyl)-3-methyl-1,2-thiazole-4-carboxamide]
IC50 [1]: 210 nM | IC50 [2]: 120 nM | IC50 [3]: 99 nM | IC50 [4]: 320 nM | IC50 [5]: 130 nM

COc1ccc(NC(=O)c2c(C)nsc2Nc2nc3c(C(F)(F)F)cccc3s2)cn1 [Example 48, N-(6-Methoxypyridin-3-yl)-3-methyl-5-{[4-(trifluoromethyl)-1,3-benzothiazol-2-yl]-amino}-1,2-thiazole-4-carboxamide]
IC50 [1]: 430 nM | IC50 [2]: 350 nM | IC50 [3]: 210 nM | IC50 [4]: 600 nM | IC50 [5]: 430 nM

Cc1nsc(Nc2nc3c(C(F)(F)F)cccc3s2)c1C(=O)Nc1ccc(Cl)c(F)c1 [Example 53, N-(4-Chloro-3-fluorophenyl)-3-methyl-5-{[4-(trifluoromethyl)-1,3-benzothiazol-2-yl]amino}-1,2-thiazole-4-carboxamide]
IC50 [1]: 200 nM | IC50 [2]: 310 nM | IC50 [3]: 520 nM | IC50 [4]: 980 nM | IC50 [5]: 220 nM

Cc1nsc(Nc2cc(C#N)ccn2)c1C(=O)Nc1ccc(Oc2ccc(F)cc2F)nc1 [Example 114, 5-[(4-Cyanopyridin-2-yl)amino]-N-[6-(2,4-difluorophenoxy)pyridin-3-yl]-3-methyl-1,2-thiazole-4-carboxamide]
IC50 [1]: 980 nM | IC50 [2]: 690 nM | IC50 [3]: 520 nM | IC50 [4]: 1300 nM | IC50 [5]: 1200 nM

Cc1nsc(Nc2cnccn2)c1C(=O)Nc1ccc(Cl)c(F)c1 [Example 56, N-(4-Chloro-3-fluorophenyl)-3-methyl-5-(pyrazin-2-ylamino)-1,2-thiazole-4-carboxamide]
IC50 [1]: 560 nM | IC50 [2]: 370 nM | IC50 [3]: 370 nM | IC50 [4]: 540 nM | IC50 [5]: 470 nM

CCc1ccccc1NC(=O)c1c(C)nsc1Nc1cnc2ccccc2n1 [Example 19, N-(2-Ethylphenyl)-3-methyl-5-(quinoxalin-2-ylamino)-1,2-thiazole-4-carboxamide]
IC50 [1]: 970 nM | IC50 [2]: 410 nM | IC50 [3]: 1500 nM | IC50 [4]: 2500 nM | IC50 [5]: 1800 nM

CCc1ccccc1NC(=O)c1c(C)nsc1Nc1ccnc(C#N)n1 [Example 6, 5-[(2-Cyanopyrimidin-4-yl)amino]-N-(2-ethylphenyl)-3-methyl-1,2-thiazole-4-carboxamide]
IC50 [1]: 2300 nM | IC50 [2]: 1900 nM | IC50 [3]: 2100 nM | IC50 [4]: 3000 nM | IC50 [5]: 2300 nM

CCc1ccccc1NC(=O)c1c(C)nsc1Nc1nc(C)nc2ccccc12 [Example 35, N-(2-Ethylphenyl)-3-methyl-5-[(2-methylquinazolin-4-yl)amino]-1,2-thiazole-4-carboxamide]
IC50 [1]: 1600 nM | IC50 [2]: 610 nM | IC50 [3]: 1600 nM | IC50 [4]: 2400 nM | IC50 [5]: 1700 nM

CCc1ccccc1NC(=O)c1c(C)nsc1Nc1cnc2ccc(Cl)cc2n1 [Example 41, 5-[(7-Chloroquinoxalin-2-yl)amino]-N-(2-ethylphenyl)-3-methyl-1,2-thiazole-4-carboxamide]
IC50 [1]: 170 nM | IC50 [2]: 640 nM | IC50 [3]: 350 nM | IC50 [4]: 750 nM | IC50 [5]: 680 nM

COc1ccc(NC(=O)c2c(C)nsc2Nc2nc3c(C(F)(F)F)cccc3s2)cc1F [Example 47, N-(3-Fluoro-4-methoxyphenyl)-3-methyl-5-{[4-(trifluoromethyl)-1,3-benzothiazol-2-yl]amino}-1,2-thiazole-4-carboxamide]
IC50 [1]: 360 nM | IC50 [2]: 83 nM | IC50 [3]: 180 nM | IC50 [4]: 49 nM | IC50 [5]: 110 nM

COc1ccc(NC(=O)c2c(C)nsc2Nc2cnc3cccc(C)c3n2)cn1 [Example 22, N-(6-methoxypyridin-3-yl)-3-methyl-5-[(8-methylquinoxalin-2-yl)amino]-1,2-thiazole-4-carboxamide]
IC50 [1]: 1600 nM | IC50 [2]: 760 nM | IC50 [3]: 790 nM | IC50 [4]: 2200 nM | IC50 [5]: 950 nM

Cc1nsc(Nc2cc(C#N)ccn2)c1C(=O)Nc1ccc(F)c(F)c1 [Example 27, 5-[(4-Cyanopyridin-2-yl)amino]-N-(3,4-difluorophenyl)-3-methyl-1,2-thiazole-4-carboxamide]
IC50 [1]: 450 nM | IC50 [2]: 240 nM | IC50 [3]: 220 nM | IC50 [4]: 350 nM | IC50 [5]: 220 nM

Cc1nsc(Nc2nc3c(C(F)(F)F)cccc3s2)c1C(=O)Nc1ccc(F)c(F)c1 [Example 51, N-(3,4-Difluorophenyl)-3-methyl-5-{[4-(trifluoromethyl)-1,3-benzothiazol-2-yl]-amino}-1,2-thiazole-4-carboxamide]
IC50 [1]: 69 nM | IC50 [2]: 370 nM | IC50 [3]: 280 nM | IC50 [4]: 160 nM | IC50 [5]: 470 nM

CCc1ccccc1NC(=O)c1c(C)nsc1Nc1cnc2cccc(C)c2n1 [Example 33, N-(2-Ethylphenyl)-3-methyl-5-[(8-methylquinoxalin-2-yl)amino]-1,2-thiazole-4-carboxamide]
IC50 [1]: 740 nM | IC50 [2]: 850 nM | IC50 [3]: 1200 nM | IC50 [4]: 1300 nM | IC50 [5]: 1400 nM

CCOC(=O)c1cnn2ccc(Nc3snc(C)c3C(=O)Nc3ccc(F)c(F)c3)nc12 [Example 55, Ethyl 5-({4-[(3,4-difluorophenyl)carbamoyl]-3-methyl-1,2-thiazol-5-yl}amino)-pyrazolo[1,5-a]pyrimidine-3-carboxylate]
IC50 [1]: 150 nM | IC50 [2]: 140 nM | IC50 [3]: 300 nM | IC50 [4]: 390 nM | IC50 [5]: 380 nM

Cc1nsc(Nc2ccc(C#N)cn2)c1C(=O)Nc1ccc(Cl)c(F)c1 [Example 52, N-(4-Chloro-3-fluorophenyl)-5-[(5-cyanopyridin-2-yl)amino]-3-methyl-1,2-thiazole-4-carboxamide]
IC50 [1]: 190 nM | IC50 [2]: 130 nM | IC50 [3]: 130 nM | IC50 [4]: 310 nM | IC50 [5]: 230 nM

Cc1nsc(Nc2cnc3ccccc3n2)c1C(=O)Nc1ccc(F)c(F)c1 [Example 50, N-(3,4-Difluorophenyl)-3-methyl-5-(quinoxalin-2-ylamino)-1,2-thiazole-4-carboxamide]
IC50 [1]: 270 nM | IC50 [2]: 210 nM | IC50 [3]: 520 nM | IC50 [4]: 410 nM | IC50 [5]: 300 nM

COc1ccc(NC(=O)c2c(C)nsc2Nc2cnc3cc(Cl)ccc3n2)cn1 [Example 23, 5-[(6-Chloroquinoxalin-2-yl)amino]-N-(6-methoxypyridin-3-yl)-3-methyl-1,2-thiazole-4-carboxamide]
IC50 [1]: 2400 nM | IC50 [2]: 2700 nM | IC50 [3]: 2200 nM | IC50 [4]: 9400 nM | IC50 [5]: 8400 nM

COc1ccc(NC(=O)c2c(C)nsc2Nc2cnc3c(F)c(F)ccc3n2)cn1 [Example 43, 5-[(5,6-Difluoroquinoxalin-2-yl)amino]-N-(6-methoxypyridin-3-yl)-3-methyl-1,2-thiazole-4-carboxamide]
IC50 [1]: 380 nM | IC50 [2]: 260 nM | IC50 [3]: 130 nM | IC50 [4]: 420 nM | IC50 [5]: 230 nM

COc1ccc(NC(=O)c2c(C)nsc2Nc2cnc3cc(C(F)(F)F)ccc3n2)cn1 [Example 45, N-(6-Methoxypyridin-3-yl)-3-methyl-5-{[6-(trifluoromethyl)quinoxalin-2-yl]amino}-1,2-thiazole-4-carboxamide]
IC50 [1]: 380 nM | IC50 [2]: 300 nM | IC50 [3]: 100 nM | IC50 [4]: 460 nM | IC50 [5]: 190 nM
